From PMC5467316, “Antiviral Activity of Fridericia formosa (Bureau) L. G. Lohmann (Bignoniaceae) Extracts and Constituents” (Journal of Tropical Medicine, 2017)
Like-named read-outs stand apart in the source and are kept apart here.

Assays:
[1] = system: murine encephalomyocarditis virus (EMCV); type: cell-based; details: statement in text
[2] = system: dengue virus type 2 (DENV-2); test: microbe, parasite or virus in culture; type: cell-based; details: for antiviral activity against DENV-2 (in words): statement in text; for EC50: Dengue virus, DENV2, 72 h
[3] = system: human herpes virus 1 (HSV-1); test: microbe, parasite or virus in culture; type: cell-based; details: for EC50: Human alphaherpesvirus 1, 48 h; for antiviral activity against HSV-1 (in words): statement in text
[4] = system: vaccinia virus Western Reserve (VACV-WR); test: microbe, parasite or virus in culture; type: cell-based; details: for EC50: Vaccinia virus Western Reserve, 48 h; for antiviral activity against VACV-WR (in words): statement in text
[5] = Cytotoxicity assay (MTT), Vero cells; type: cell-based; details: African green monkey
[6] = Cytotoxicity assay (MTT), LLCMK2 cells; type: cell-based; details: rhesus monkey
[7] = set-up: method as in PMID 14977449; details: clinical tests; cited from earlier work
HSV-1 = system: HSV-1; set-up: method as in PMID 16350858; details: previously reported; read-out: EC50 against HSV-1; cited from earlier work
HIV-1 replication = system: HIV-1 replication; set-up: method as in PMID 24066838, PMID 21610656; details: dose dependent manner; cited from earlier work
[8] = system: hepatitis B surface antigen (HBsAg); set-up: method as in PMID 23576173; details: cited from earlier work
[9] = system: hepatitis B antigen (HBeAg); set-up: method as in PMID 23576173; details: cited from earlier work
Enterovirus 71 = system: Enterovirus 71; set-up: method as in PMID 24679044; details: in vitro; read-out: EC50 against Enterovirus 71; cited from earlier work
Vero cells = system: Vero cells; set-up: method as in PMID 24679044; details: cited from earlier work
[10] = read-out: HSV-1 EC50 (value in parentheses)
[11] = read-out: VACV-WR EC50 (value in parentheses), viral titer TCID50/mL 1.0 × 10^6 in 48 h, MTT, concentration in µM
[12] = read-out: VACV-WR EC50, viral titer TCID50/mL 1.0 × 10^6 in 48 h, MTT

## O=c1cc(-c2ccccc2)oc2cc(O)cc(O)c12 [Chrysin (4), 5,7-Dihydroxy-2-phenyl-4H-1-benzopyran-4-one]
[1]
  antiviral activity against EMCV (in words): did not inhibit the replication cycle
[2]
  antiviral activity against DENV-2 (in words): did not inhibit the replication cycle
[3]; read-out: HSV-1 EC50
  EC50: > 100 µg/mL
[3]; [10]
  EC50: 576 µM
[3]
  antiviral activity against HSV-1 (in words): low activity
[4]; [11]
  EC50: 486 µM
[4]; [12]
  EC50: > 100 µg/mL
[4]
  antiviral activity against VACV-WR (in words): low activity
[4]; viral titer TCID50/mL 1.0 × 10^6 in 48 h, MTT
  VACV-WR EC50: 123.5 ± 10.5 µg/mL
[5]
  CC50: > 500 µg/mL
[6]
  CC50: > 500 µg/mL
[7]
  effect on testosterone levels in men (in words): no effect
HSV-1
  EC50: 2.5 µM

## O=c1c2cc(O)c(O)cc2oc2cc(O)c([C@@H]3O[C@H](CO)[C@@H](O)[C@H](O)[C@H]3O)c(O)c12 [Mangiferin (1), 2-β-D-Glucopyranosyl-1,3,6,7-tetrahydroxy-9H-xanthen-9-one]
[1]
  antiviral activity against EMCV (in words): low antiviral effect
[1]; listed as mangiferin
  antiviral activity against EMCV (in words): practically inactive
[2]; read-out: DENV-2 EC50
  EC50: 266 µg/mL
[2]; read-out: DENV-2 EC50 (value in parentheses)
  EC50: 629 µM
[2]
  antiviral activity against DENV-2 (in words): low antiviral effect
[2]; listed as mangiferin
  antiviral activity against DENV-2 (in words): practically inactive
[3]; read-out: HSV-1 EC50
  EC50: 268 µg/mL
[3]; [10]
  EC50: 635 µM
[3]
  antiviral activity against HSV-1 (in words): low antiviral effect
[3]; listed as mangiferin
  antiviral activity against HSV-1 (in words): practically inactive
[4]; [11]
  EC50: 432 µM
[4]; [12]
  EC50: 183 ± 14.3 µg/mL
[4]
  antiviral activity against VACV-WR (in words): low antiviral effect
[4]; listed as mangiferin
  antiviral activity against VACV-WR (in words): practically inactive
[5]
  CC50: > 500 µg/mL
[6]
  CC50: > 500 µg/mL
HIV-1 replication
  inhibitory activity on HIV-1 replication (in words): good inhibitory activity

## Nc1nc2c(ncn2COCCO)c(=O)[nH]1 [Acyclovir, reference compound]
[5]; MTT, exposure 48 and 72 h, read-out: Vero CC50
  CC50: > 1000 µg/mL
[6]; MTT, exposure 48 and 72 h, read-out: LLCMK2 CC50
  CC50: > 1000 µg/mL

## COc1cc(O)c2c(=O)c3c(O)ccc(O)c3oc2c1 [1,5,8-trihydroxy-3-methoxyxanthone]
[8]
  EC50: > 980 µM
[9]
  EC50: 350 µM

## O=c1c2cc(O)ccc2oc2cc(O)c([C@@H]3O[C@H](CO)[C@@H](O)[C@H](O)[C@H]3O)c(O)c12 [2-C-β-D-glucopyranosyl-1,3,7-trihydroxyxanthone]
[8]
  EC50: 210 µM
[9]
  EC50: 40 µM

## euxanthone
Enterovirus 71
  EC50: 12.2 µM
Vero cells
  CC50: 36.6 µM

## O=c1c2c(O)cc(O)cc2oc2c(O)ccc(O)c12 [norbellidifolin]
[8]
  EC50: 770 µM
[9]
  EC50: < 620 µM
